Measured values reported in patent US9133182B2, “Selective androgen receptor modulators” (Radius Health, Inc., priority 2010, dated 2015).

What was measured:
[1] = system: immature, castrated rat (levator ani and bulba cavernous, LABC); assay: In vivo rat Herschberger assay, LABC weight; set-up: key: no = no activity observed at highest dose tested.; yes = increased LABC weight relative to castrated vehicle control; conditions: once daily oral gavage for 4 days
Text: In Vivo Rat Model of Androgen and Anabolic Activity-Rat Herschberger Assay
The following is a typical procedure of the in vivo evaluation of the selective androgens of this invention. In particular, this assay looks primarily at the ability of the selective androgens of this invention to increase muscle size in an immature, castrated rat. In addition, androgenic effects are looked at primarily by weighing the prostate and seminal vesicles. Selective compounds will show a greater increase in the levator ani relative to the prostate and seminal vesicles when compared to testosterone treated, castrated animals or to intact animals that have not been treated. Immature Sprague Dawley male rats were obtained Charles River Laboratories (Stoneridge, N.Y.). All animals were maintained in a temperature and humidity controlled room with a 12 hr light: 12 hr dark cycle, with ad lib access to food (TD 291615, Teklad, Madison, Wis.) and water. Rats were anesthetized and orchidectomized (GDX) or sham surgery (SHAM) was performed. After a 7-day recovery period, the animals were randomized according to weight and assigned to treatment groups (n=5), SHAM, OVX+vehicle, OVX+Cpd treated. Testosterone propionate (TP 1 mg/kg in 5% DMSO/95% corn oil) was administered by once daily subcutaneous injections, while the compounds of the invention are dosed in vehicle (0.5% carboxymethylcellulose) was administered by once daily oral gavage. The rats were then dosed once daily for 4 days. All animals were euthanized via carbon dioxide inhalation 24 hs after the last dose. The prostate, seminal vesicle and levator ani and bulba cavernous (LABC) tissues were removed, weighed and recorded. An increase in mean LABC indicates anabolic activity for that particular compound with regard to oral dosing typically at a maximum tested dose of between 1 mg/kg and 30 mg/kg—see Table 1.

androgen receptor = androgen receptor (Rattus norvegicus (Rat), UniProt P15207); assay: androgen receptor binding assay (fluorescence polarization, Invitrogen); conditions: AR-Fluormone complex, 4 h at room temperature
Protocol: The assay was performed as specified by the manufacturer (Invitrogen, Madison, Wis.). Briefly, 1 μl of 10 mM compound was added to 500 μl of AR screening buffer in a 1.5 ml eppendorf tube to make a 2×10^−5M stock. 10-fold serial dilutions of the test compounds were prepared ranging in concentration from 10^−5M to 10^−12M. Each dilution was added in triplicate to a black 384-microtiter plate. The test compounds will be diluted 2-fold in the final reaction. 2×AR-Fluormone™ complex was prepared with 2 nM Flourmone AL Green™ and 30 nM AR. 25 μl of 2×complex was aliquoted to each reaction well, such that the final reaction volume was 50 μl per well. Plate was sealed with a foil cover and incubated in the dark at room temperature for 4 h. Polarization values for each well were measured. The polarization values were plotted against the concentration of the test compound. […] As a control, a competition curve for R1881 (methyltrienolone) was performed for each assay.

[2] = maximum tested dose between 1 mg/kg and 30 mg/kg, Table 1

Chain of androgen receptor (P15207 651-902): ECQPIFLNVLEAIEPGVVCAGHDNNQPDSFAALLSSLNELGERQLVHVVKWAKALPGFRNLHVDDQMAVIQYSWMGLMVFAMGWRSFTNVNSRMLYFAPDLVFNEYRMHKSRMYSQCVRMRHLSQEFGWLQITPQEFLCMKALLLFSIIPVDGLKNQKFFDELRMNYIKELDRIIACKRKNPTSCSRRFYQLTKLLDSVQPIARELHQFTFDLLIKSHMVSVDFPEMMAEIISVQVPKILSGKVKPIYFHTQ

N#Cc1ccc(N2C(=O)OC[C@H]2[C@H](O)C(F)(F)F)cc1Cl [Example 9, 2-chloro-4-((S)-2-oxo-4-((S)-2,2,2-trifluoro-1-hydroxyethyl)oxazolidin-3-yl)benzonitrile]
Oral activity in Herscheberger assay on LABC weight [1, 2]: yes | IC50 (androgen receptor; Table 1): 45 nM

Cc1c(N2C(=O)OC[C@@H]2[C@H](O)C(F)(F)F)ccc(C#N)c1Cl [Example 11, 2-chloro-3-methyl-4-((R)-2-oxo-4-((S)-2,2,2-trifluoro-1-hydroxyethyl)oxazolidin-3-yl)benzonitrile]
Oral activity in Herscheberger assay on LABC weight [1, 2]: yes | IC50 (androgen receptor; Table 1): 25 nM

Cc1c(N2C(=O)OC[C@@H]2[C@H](O)C(F)(F)F)ccc(C#N)c1C(F)(F)F [Example 13, 3-methyl-4-((R)-2-oxo-4-((S)-2,2,2-trifluoro-1-hydroxyethyl)oxazolidin-3-yl)-2-(trifluoromethyl)benzonitrile]
Oral activity in Herscheberger assay on LABC weight [1, 2]: yes | IC50 (androgen receptor; Table 1): 13 nM

Cc1c(N2C(=O)O[C@@H](C)[C@@H]2[C@H](O)C(F)(F)F)ccc(C#N)c1Cl [Example 17, 2-chloro-3-methyl-4-((4S,5S)-5-methyl-2-oxo-4-((S)-2,2,2-trifluoro-1-hydroxyethyl)oxazolidin-3-yl)benzonitrile]
Oral activity in Herscheberger assay on LABC weight [1, 2]: yes | IC50 (androgen receptor; Table 1): 13 nM

C[C@@H]1OC(=O)N(c2ccc(C#N)c(Cl)c2)[C@H]1[C@H](O)C(F)(F)F [Example 21, 2-Chloro-4-((4S,5S)-5-methyl-2-oxo-4-((S)-2,2,2-trifluoro-1-hydroxyethyl)oxazolidin-3-yl)benzonitrile]
Oral activity in Herscheberger assay on LABC weight [1, 2]: yes | IC50 (androgen receptor; Table 1): 15 nM

C[C@@H]1OC(=O)N(c2ccc(C#N)c(Cl)c2)[C@H]1[C@@H](O)C(F)(F)F [Example 22, 2-Chloro-4-((4S,5S)-5-methyl-2-oxo-4-((R)-2,2,2-trifluoro-1-hydroxyethyl)oxazolidin-3-yl)benzonitrile]
Oral activity in Herscheberger assay on LABC weight [1, 2]: yes | IC50 (androgen receptor; Table 1): 210 nM

CN1C[C@H]([C@H](O)C(F)(F)F)N(c2ccc(C#N)c(C(F)(F)F)c2)C1=O [Example 25, 4-((R)-5-((S)-2,2,2-trifluoro-1-hydroxyethyl)-3-methyl-2-oxoimidazolidin-1-yl)-2-(trifluoromethyl)benzonitrile]
Oral activity in Herscheberger assay on LABC weight [1, 2]: no | IC50 (androgen receptor; Table 1): 10 nM

CN1C[C@H]([C@@H](O)C(F)(F)F)N(c2ccc(C#N)c(C(F)(F)F)c2)C1=O [Example 26, 4-((R)-5-((R)-2,2,2-trifluoro-1-hydroxyethyl)-3-methyl-2-oxoimidazolidin-1-yl)-2-(trifluoromethyl)benzonitrile]
Oral activity in Herscheberger assay on LABC weight [1, 2]: no | IC50 (androgen receptor; Table 1): > 1000 nM

O=C1CC[C@H]([C@H](O)C(F)(F)F)N1c1ccc(Cl)c(Cl)c1 [Example 27, (R)-1-(3,4-dichlorophenyl)-5-((S)-2,2,2-trifluoro-1-hydroxyethyl)pyrrolidin-2-one]
Oral activity in Herscheberger assay on LABC weight ([1]; Table 2): yes | IC50 (androgen receptor; Table 2): 62 nM

Cc1c(N2C(=O)CC[C@@H]2[C@H](O)C(F)(F)F)ccc(C#N)c1Cl [Example 29, 2-chloro-4-((R)-2-((S)-2,2,2-trifluoro-1-hydroxyethyl)-5-oxopyrrolidin-1-yl)-3-methylbenzonitrile]
Oral activity in Herscheberger assay on LABC weight ([1]; Table 2): yes | IC50 (androgen receptor; Table 2): 25 nM

Cc1c(N2C(=O)CC[C@@H]2[C@@H](O)C(F)(F)F)ccc(C#N)c1Cl [Example 30, 2-chloro-4-((R)-2-((R)-2,2,2-trifluoro-1-hydroxyethyl)-5-oxopyrrolidin-1-yl)-3-methylbenzonitrile]
Oral activity in Herscheberger assay on LABC weight ([1]; Table 2): no | IC50 (androgen receptor; Table 2): 491 nM

N#Cc1ccc(N2C(=O)CC[C@@H]2C(O)C(F)(F)F)cc1Cl (stereo partly drawn) [Example 31, 2-chloro-4-((R)-2-(2,2,2-trifluoro-1-hydroxyethyl)-5-oxopyrrolidin-1-yl)benzonitrile]
Oral activity in Herscheberger assay on LABC weight ([1]; Table 2): yes | IC50 (androgen receptor; Table 2): 46 nM
